These results are taken from PMC8120183, “Cardamonin inhibits the progression of oesophageal cancer by inhibiting the PI3K/AKT signalling pathway” (Journal of Cancer, 2021).

In data set [1] the test system is oesophageal cancer cell lines EC9706 and TE10. Put plainly: Colony formation assay. The format is cell-based, human. To be noted: two weeks culture. The method, then: Oesophageal cancer cells were inoculated into 6-well plates at a density of 8×10^2 cells/well and treated with different concentrations of CAR. The cells were continuously cultured for two weeks until colonies visible to the naked eye had formed. Then, the supernatant was discarded, and crystal violet staining solution was added for 10 min. The cells were dried and photographed, and the colony formation rate was calculated.

Data set [2] deals with PI3K/AKT signalling pathway in EC9706 cells. Put plainly: Western blot, PI3K/AKT signalling pathway. The note with it: EC9706 cells, with increasing CAR concentrations. In kind it is cell-based, human. The method, then: (§1) Oesophageal cancer cells were inoculated into a 6-well plate (5×10^5 cells/well). Cells were treated with different concentrations of CAR and then incubated for an additional 48 h. The cells were lysed using radio-immunoprecipitation assay (RIPA) buffer. The protein concentration was determined using a BCA kit. Proteins were separated by 8-12% sodium dodecyl sulfate-polyacrylamide gel electrophoresis (SDS-PAGE) and then transferred to a polyvinylidene fluoride (PVDF) membrane. The membrane was blocked with 5% nonfat milk for 1 h and then incubated with primary antibodies at 4 °C overnight. The membrane was then incubated with secondary antibodies for 1 h at room temperature. Finally, the membrane was imaged using a chemiluminescence imaging analyser. The greyscale value of each target protein band was analysed using the software provided with the analyser.
In general terms: Immunoblotting shows a protein as a band on a membrane.

The test system of data set [3] is normal gastric epithelial cells (GES-1). Put plainly: MTT assay, IC50 in normal cells. In kind it is cell-based, human. The note with it: GES-1, 24 h and 48 h. The method, then:
(§2) EC9706 and TE10 oesophageal cancer cells in the logarithmic growth phase were harvested and inoculated into 96-well plates at a density of 3000 cells/well. The cells were cultured in an incubator for 12 h and then treated with different concentrations of CAR and DMSO. The NC group was also set up. After incubation for 24 h or 48 h, 10 µL of MTT solution (5 mg/ml) was added to each well. The supernatant was aspirated, and 100 µL of DMSO was added to each well. The absorbance at a wavelength of 490 nm was measured using a microplate reader.
(§3) Supplementary Figure 1 (A -D) EC9706 and TE10 cells were treated with different concentrations of CAR or DMSO, and cell viability and the IC50 at 24 h and 48 h were examined by MTT assay. (E-H) HET-1A and GES-1 cells were treated with different […]
(§4) examined by MTT assay. (I-J) EC9706 cells were incubated with CAR or the caspase inhibitor Z-VAD- FMK or co-incubated, and mitochondrial apoptosis pathway- related proteins were detected by Western blot. […]
(§5) reverse the expression of Bcl2, Bax, Bad, caspase- 3, and cleaved caspase- 3. (K and L) The apoptosis of EC9706 cells after applying the caspase inhibitor Z-VAD- FMK was detected by […]
(§6) (1 picture or pasted object on this page, not shown here)
(In general: Formazan colour is commonly taken as a measure of viable cells.)

Data set [4] has as its system human normal oesophageal cells (HET-1A). In words: MTT assay, IC50 in normal cells. The format is cell-based. To be noted: 24 h and 48 h. The method, then:
as §2, §3, §4, §5, §6

Data set [5] in a line: Body weight of xenograft mice. The format is in vivo, nude mice. The note with it: 5, 15 or 25 mg/kg by gavage, compared with control group. The method, then: (§7) A suspension of EC9706 cells (2×10^7 cells/ml) was injected into the middle of and posterior to the armpit of 4- to 6-week-old male nude mice. One week after inoculation, a soybean-sized subcutaneous mass appeared in the armpits of the mice. Then, different doses of CAR (5, 15, or 25 mg/kg) or sodium carboxymethyl cellulose (CMC), which served as a control, were administered by gavage once every three days. The body weights of the mice and tumour size were measured at the same time. Mice were euthanized 26 days after drug administration. Immunohistochemistry (IHC) was used to stain the tumours, and stomach tissue was stained with haematoxylin-eosin (HE).

The subject of data set [6] is EC9706 and TE10 cells. Put plainly: Transwell Matrigel invasion assay. To be noted: 48 h. The format is cell-based, human. The method, then: (§8) A total of 100 μL of Matrigel was placed in the upper chamber of a Transwell system and incubated at 37 °C for 2 h to form a white membrane visible to the naked eye. Cells were resuspended in serum-free medium and adjusted to a concentration of 3×10^4 cells/well. Medium containing 10% FBS was added into the lower chamber, and CAR was added based on a concentration gradient. Next, the cells were incubated for 48 h and then stained with crystal violet for 10 min. Then, an inverted microscope was used to observe the cells; five fields were randomly selected to observe and count the cells. To assess cell migration, all the above steps were repeated, but Matrigel was not added to the upper chamber.

The subject of data set [7] is EC9706 and TE10 cells. Put plainly: Transwell migration assay. The format is cell-based, human. The note with it: 48 h, compared with control group. The method, then: as §8
Data set [8] relates to Bad, Bax, Bcl-2, PARP, caspase-3 in EC9706 cells. In words: Western blot, apoptosis-related proteins. In kind it is cell-based, human. The note with it: 48 h. The method, then:
as §1

The subject of a further data set is EC9706 xenograft. In words: EC9706 tumour xenograft model, tumour growth. The format is in vivo, nude mice. The note with it: 5, 15 or 25 mg/kg by gavage once every three days, compared with control group. The method, then:
as §7

With `COc1cc(O)cc(O)c1C(=O)/C=C/c1ccccc1` [CAR, Cardamonin], in [1], the colony formation result was “significant inhibitory effect on the colony formation of oesophageal cancer cells in a concentration-dependent manner”. For the same compound, in [2], the “protein levels of p-PI3K and p-AKT” value is recorded as “decreased significantly”. Further, the “IC50 in normal cells compared with oesophageal cancer cells” value in data set [3] is “higher IC50 values”. In addition, the “IC50 in normal cells compared with oesophageal cancer cells” value in data set [4] is given as “higher IC50 values”. For the same compound, the weight of mice result in data set [5] was “did not significantly change”. Further, in the data set with EC9706 and TE10 cells [6], the invasive ability entry is recorded as “significantly inhibited the invasive ability of oesophageal cancer cells”. Also, the cell migration entry in the data set on EC9706 and TE10 cells [7] is on record as “significantly inhibited oesophageal cancer cell migration”. Besides, in [8], the “expression of anti-apoptosis-related proteins” value is “downregulated the expression level of the anti-apoptosis-related proteins Bcl-2, PARP, and caspase-3”; the “expression of pro-apoptosis-related proteins” value was “upregulated the expression levels of the pro-apoptosis-related proteins Bad, Bax, cleaved PARP, and cleaved caspase-3”. In the data set on EC9706 xenograft, the tumour growth result is “significantly inhibited tumour growth”.
